Measurements reported in US4996227A, “3-(heteroarylalkyene)- and 3-(arylalkylene)-2,4(3H,5H)-heterocyclic diones as cancer chemotherapy drugs” (priority 1989, dated 1991).

Experiments:
Assay type in all cases: cell-based
[1] = test system: K562 cells (human chronic granulocytic leukemia); assay: K562 human leukemia cell suspension culture, cell concentration; settings: 1 ug/ml
Experimental: In this example, 1 mcg/ml of 3[[5-methyl-2-thienyl]methylene]2, 4 (3H, 5H) furandione was compared to 1 mcg/ml of 3[[3-methyl-2-thienyl]methylene]2, 4 (3H, 5H) furandione.
A conventionally available cell line (K562) derived from human chronic granulocytic leukemia was employed in an in vitro procedure. The leukemia cell line was cultured in a suspension of RPMI 1640 plus 10% fetal calf serum. All initial cell concentrations for the cultures were 0.65 times 10^5 cells/ml. Four separate suspension cultures were employed with the first suspension culture having no additions. The second suspension culture included 100 microliters of the solvent DMSO per 10 ml of culture (control). The third culture contained 1 ug/ml of 3[[5-methyl-2 thienyl]methylene]-2, 4 (3H, 5H) furandione and the fourth culture contained 1 ug/ml of 3[[3-methyl-2-thienyl]methylene]-2, 4 (3H, 5H) furandione. The cell concentration of each of the four cultures was determined. After three days and again after five days.

[2] = test system: human tumor H5318 OVARY; assay: Human Tumor Stem Cell Assay, colony growth after one hour exposure; settings: 1 h
Excerpt: (§1) The in vitro Human Tumor Stem Cell Assay procedure described as follows has several advantages for testing the effectiveness of chemotherapy drugs such as the 3-(heteroarylalkylene)-2,4(3H,5H)-furandiones. The first advantage is that fresh tumor cells from a variety of tumor types were used rather than a small number of cell lines which have undergone severe selection pressures as they are passed in vitro. The second advantage is that only the anchorage-independent tumor cells will form colonies in soft agar so that any non-malignant cells present in the sample will not form colonies. Perhaps the most important advantage, however, is the emphasis on cells which have the ability to form colonies. These cells, which are generally called stem cells, usually comprise only a small percentage of all tumor cells. They are thought to be the most important cells for growth and distant spread of a tumor. In particular, these cells have the potential to leave the primary tumor and form new tumors at distant sites (called metastases). It is the effectiveness against these very important stem cells that the Human Tumor Stem Cell Assay measures.
(§2) One of the 3-(heteroarylalkylene)-2,4(3H,5H)-furandione compounds, 3-[(5-methyl-2-thienyl) methylene]-2,4(3H,5H)-furandione was evaluated against a series of 10 human tumors in the in vitro Human Tumor Cell Assay, along with conventional and standard chemotherapy agents.
(§3) In the procedure, a single cell suspension was prepared from tumors excised from patients during therapeutic or diagnostic surgical procedures. The human tumor cells were exposed to known anticancer drugs or to [(5-methyl-2-thienyl)methylene]-2,4 (3H, 5H)-furandione at a low (0.2 mcg/ml) or a high (1.0 mcg/ml) concentration for one hour. […] The suspension was washed with tissue culture medium to remove the drug.
(§4) The suspension was then cultured in a double soft agar suspension. Control cells which had been treated identically, except for exposure to the drugs, were also cultured. After one to two weeks, both the tumor cells and the control cells formed colonies in the soft agar which were enumerated under a microscope. The number of colonies grown from the drug-treated cells was compared to the number of colonies grown from the control cells, and the percentage growth after exposure to the drug was calculated.
(§5) The results are illustrated in Table 1, wherein the various numbers indicate the percentage of growth. For example, a small number like 6 means that the number of colonies is only 6% of the number without addition of the compound. On the other hand, a large number like 120 means that the number of colonies is 20% greater with the compound than without.
(§6) Of the nine tumors for which the higher concentration (1.0 mcg/ml) of the furandione was used, five gave inhibition of colony growth corresponding to borderline sensitive (30-50% growth) and four gave inhibition corresponding to sensitivity (0-30% growth). Clinical drugs are normally tested at 10% of their peak plasma concentration. For the standard chemotherapy drugs shown in Table 1, the low concentration (LO) corresponds to this 10% level, and the high concentration (HI) is at 50% of the peak plasma concentration. Of the same nine tumors, only two would have been rated as sensitive or borderline sensitive to any of the other clinical drugs tested.

[3] = test system: human tumor H5322 STOMACH; assay: as above; settings: 1 h
Excerpt: as §1, §2, §3, §4, §5, §6

[4] = test system: human tumor H5331 OVARY; assay: as above; settings: 1 h
Excerpt: as §1, §2, §3, §4, §5, §6

[5] = test system: human tumor H5315 BREAST; assay: as above; settings: LO: furandione 0.2 mcg/ml; standard drugs 10% of peak plasma concentration; 1 h
Excerpt: as §1, §2, §3, §4, §5, §6

[6] = test system: human tumor H5325 SARCOMA; assay: as above; settings: 1 h
Excerpt: as §1, §2, §3, §4, §5, §6

[7] = test system: human tumor H5330 THYMUS; assay: as above; settings: HI: furandione 1.0 mcg/ml; standard drugs 50% of peak plasma concentration; 1 h
Excerpt: as §1, §2, §3, §4, §5, §6

[8] = test system: human tumor H5349 BREAST; assay: as above; settings: 1 h
Excerpt: as §1, §2, §3, §4, §5, §6

[9] = test system: human tumor H5319 BREAST; assay: as above; settings: 1 h
Excerpt: as §1, §2, §3, §4, §5, §6

[10] = test system: human tumor H5340 **; assay: as above; settings: 1 h
Excerpt: as §1, §2, §3, §4, §5, §6

[11] = test system: human tumor H5337 COLON; assay: as above; settings: 1 h
Excerpt: as §1, §2, §3, §4, §5, §6

[12] = HI: furandione 1.0 mcg/ml, standard drugs 50% of peak plasma concentration
[13] = LO: furandione 0.2 mcg/ml, standard drugs 10% of peak plasma concentration

Row | SMILES | percentage of growth (colonies vs control) [2, 12] [%] | percentage of growth (colonies vs control) [2, 13] [%] | percentage of growth (colonies vs control) [3, 12] [%] | percentage of growth (colonies vs control) [3, 13] [%] | percentage of growth (colonies vs control) [4, 12] [%] | percentage of growth (colonies vs control) [5] [%] | percentage of growth (colonies vs control) [6, 12] [%] | percentage of growth (colonies vs control) [6, 13] [%] | percentage of growth (colonies vs control) [7] [%] | percentage of growth (colonies vs control) [8, 12] [%] | percentage of growth (colonies vs control) [9, 12] [%] | percentage of growth (colonies vs control) [10, 12] [%] | percentage of growth (colonies vs control) [11, 12] [%] | also measured
1 | Cc1ccsc1C=C1C(=O)COC1=O [3 methyl, 3[[3-methyl-2-thienyl]methylene]-2, 4 (3H, 5H) furandione] |  |  |  |  |  |  |  |  |  |  |  |  |  | effect on leukemia culture [1]: also shows a decrease in the leukemia cell concentration culture, but the decrease is not as great as with the other compound; Cell Conc. ([1]; 3 Days): 50000 mL⁻¹; Cell Conc. ([1]; 5 Days): 150000 mL⁻¹; cell concentration vs 5-methyl analog ([1]; after five days): slightly higher cell concentration than the 5-methyl analog
2 | COc1cccc2c1C(=O)c1c(O)c3c(c(O)c1C2=O)C[C@@](O)(C(=O)CO)C[C@@H]3O[C@H]1C[C@H](N)[C@H](O)[C@H](C)O1 [ADR, ADRIAMYCIN] | 60 | 76 | 65 | 55 | 105 | 75 | 11 | 22 | 98 | 82 | 100 |  |  | 
3 | CCOC(=O)NC1=C(N2CC2)C(=O)C(NC(=O)OCC)=C(N2CC2)C1=O [AZO, AZIRIDIMYLBENYOQUINONE] |  |  |  |  |  |  |  |  |  |  |  | 107 |  | 
4 | O=NN(CCCl)C(=O)NCCCl [BCNU, BISCHLORETHYLNITROSOUREA] | 93 |  |  |  | 111 | 108 |  |  | 74 |  | 122 |  | 88 | 
5 | N.N.[Cl][Pt][Cl] [CPDD, CISPLATIN] | 38 | 109 | 56 | 63 | 69 |  |  | 62 | 75 | 54 |  | 125 | 41 | percentage of growth (colonies vs control) [4, 13]: 87%; percentage of growth (colonies vs control) [8, 13]: 48%; percentage of growth (colonies vs control) [11, 13]: 98%
6 | Nc1nc(=S)c2[nH]cnc2[nH]1 [Compound 6TG, 6THOQUANINE] |  |  | 122 |  |  |  | 69 |  |  |  |  | 50 |  | percentage of growth (colonies vs control) [10, 13]: 75%
7 | CO[C@@]12[C@H](COC(N)=O)C3=C(C(=O)C(C)=C(N)C3=O)N1C[C@@H]1N[C@@H]12 [MTC, MITOMYCIN C] | 90 |  | 69 |  | 102 | 59 |  |  | 90 |  | 72 |  |  | 
8 | CC[C@]1(O)C[C@@H]2CN(CCc3c([nH]c4ccccc34)[C@@](C(=O)OC)(c3cc4c(cc3OC)N(C)[C@H]3[C@@](O)(C(=O)OC)[C@H](OC(C)=O)[C@]5(CC)C=CCN6CC[C@]43[C@@H]65)C2)C1 [VBL, VINBLASTINE] | 60 | 39 | 35 | 40 | 45 | 50 | 8 | 9 |  | 65 | 6 | 44 | 67 | percentage of growth (colonies vs control) [10, 13]: 79%; percentage of growth (colonies vs control) [4, 13]: 115%; percentage of growth (colonies vs control) [8, 13]: 70%; percentage of growth (colonies vs control) [11, 13]: 60%; percentage of growth (colonies vs control) [9, 13]: 5%
9 | CC[C@]1(O)C[C@H]2CN(CCc3c([nH]c4ccccc34)[C@@](C(=O)OC)(c3cc4c(cc3OC)N(C=O)[C@H]3[C@@](O)(C(=O)OC)[C@H](OC(C)=O)[C@]5(CC)C=CCN6CC[C@]43[C@@H]65)C2)C1 [VCR, VINCRISTINE] |  |  |  |  |  |  |  |  |  |  |  | 113 |  | 
